Assay results as given in ChEMBL document CHEMBL1671852, “In vitro activities of linezolid against clinical isolates of Mycobacterium tuberculosis complex isolated in Taiwan over 10 years” (2008).
≈ marks a conversion by molar mass, not a printed value.

Tested on: Mycobacterium tuberculosis
Assay: Antibacterial activity against Mycobacterium tuberculosis H37Rv by agar proportion method
Assay type: functional

With `CC(=O)NC[C@H]1CN(c2ccc(N3CCOCC3)c(F)c2)C(=O)O1` [LINEZOLID] the MIC was 0.5 µg/mL (≈ 1.48 µM).
